# Experimental data as given in patent US20150147273A1, “RADIOLABELED ANALOG(S) OF COMPOUND 0118 AND USE THEREOF IN CONNECTION WITH PET AND/OR SPECT IMAGING TO DETERMINE WHETHER A PHARMACEUTICAL CONTAINING COMPOUND 0118 IS A CANDIDATE CANCER TREATMENT FOR A PATIENT” (KONINKLIJKE PHILIPS N.V., priority 2012, published 2015).
# Test system: MA148 human ovarian carcinoma cells
# Experiment: [3H]thymidine incorporation cell proliferation assay (FIG. 15)
# Assay type: cell-based
# Conditions: compared with 0118
# From the text: Evaluation of the anti-angiogenic activity of lower-rim substituted 0118 analogues (compound 4, compound 5) and equatorially substituted 0118 analogues (compound 13, compound 14, compound 18a, compound 18b, compound 18c).
row,Compound,potency of inhibition of MA148 cell proliferation relative to parent compound 0118
1,"C#CCCOc1c2cccc1Cc1cccc(c1OCC(=O)NCCN(C)C)Cc1cccc(c1OCC(=O)NCCN(C)C)Cc1cccc(c1OCC(=O)NCCN(C)C)C2 [compound 4, 25,26,27-Tris-N—(N,N-dimethyl-2-aminoethyl)carbamoylmethoxy-28-(3′-butynyloxy)calix[4]arene]",at least equipotent
2,"CN(C)CCNC(=O)COc1c2cccc1Cc1cccc(c1OCC(=O)NCCN(C)C)Cc1cccc(c1OCC(=O)NCCN(C)C)Cc1cccc(c1OCCc1cn(CCF)nn1)C2 [compound 5, 25,26,27-Tris-N—(N,N-dimethyl-2-aminoethyl)carbamoylmethoxy-28-{2′-[1-(2-fluorethyl)-1H-[1,2,3]triazo-4-yl]ethyloxy}calix[4]arene]",more potent inhibitor of MA148 cell proliferation
3,"C#CCC1c2cccc(c2OCC(=O)NCCN(C)C)Cc2cccc(c2OCC(=O)NCCN(C)C)Cc2cccc(c2OCC(=O)NCCN(C)C)Cc2cccc1c2OCC(=O)NCCN(C)C [compound 13, 25,26,27,28-Tetrakis-N—(N,N-dimethyl-2-aminoethyl)carbamoylmethoxy-2-(prop-2′-yn-1′-yl)calix[4]arene]",at least three times more potent than 0118
4,"CN(C)CCNC(=O)COc1c2cccc1Cc1cccc(c1OCC(=O)NCCN(C)C)C(Cc1cn(CCF)nn1)c1cccc(c1OCC(=O)NCCN(C)C)Cc1cccc(c1OCC(=O)NCCN(C)C)C2 [compound 14, 25,26,27,28-Tetrakis-N—(N,N-dimethyl-2-aminoethyl)carbamoylmethoxy-2-{[1-(2-fluorethyl)-1H-[1,2,3]triazo-4-yl]methyl}calix[4]arene]",at least three times more potent than 0118
5,"CCCC1c2cccc(c2OCC(=O)NCCN(C)C)Cc2cccc(c2OCC(=O)NCCN(C)C)Cc2cccc(c2OCC(=O)NCCN(C)C)Cc2cccc1c2OCC(=O)NCCN(C)C [compound 18b, 25,26,27,28-Tetrakis-N—(N,N-dimethyl-2-aminoethyl)carbamoylmethoxy-2-propylcalix[4]arene]",at least three times more potent than 0118

# Test system: endothelial cell proliferation
# Experiment: endothelial cell proliferation assays
# Assay type: cell-based
# Conditions: not given
# From the text: As an alternative to upper-rim substitution, [^18F]-labeled synthons may also be introduced at the lower rim or at an equatorial position of the calix[4]arene core of compound 0118. […] Based on this knowledge, close mimetics of compound 0118 have been produced, where one of the four lower rim substituents is replaced by a substituent containing an alkyne- or azide-functional group, providing access to [^18F]fluoroalkyltriazole-labeled compound 0118 analogues via Huisgen 1,3-dipolar cycloaddition reaction with the corresponding [^18F]fluoroalkynes and [^18F]fluoroazides, respectively.
row,Compound,anti-angiogenic potency compared with compound 0118
1,"CN(C)CCNC(=O)COc1c2cccc1Cc1cccc(c1OCC(=O)NCCN(C)C)Cc1cccc(c1OCC(=O)NCCN(C)C)Cc1cccc(c1OCCc1cn(CCF)nn1)C2 [compound 5, 25,26,27-Tris-N—(N,N-dimethyl-2-aminoethyl)carbamoylmethoxy-28-{2′-[1-(2-fluorethyl)-1H-[1,2,3]triazo-4-yl]ethyloxy}calix[4]arene]",comparable anti-angiogenic potency
